Source: patent EP2607478A1, “Phenanthroline treated MSC” (Universiteit Twente, priority 2011, dated 2013)

Test system: MSCs
Assay: Whole genome expression analysis (Illumina microarray) of treated MSCs
Type: cell-based, Human
Details: DFO versus Bas
Experimental: MSCs were seeded in T25 flasks at 5000 cells/cm^2 and allowed to attach overnight in proliferation medium. […] After 48 hours, RNA was isolated as described above. From 500 ng of RNA, cRNA was synthesized using the Illumina TotalPrep RNA amplification Kit (Ambion), according to the manufacturer's protocol and the quality of RNA and cRNA was verified on a Bioanalyzer 2100 (Agilent). Microarrays were performed using Illumina HT-12 v4 expression Beadchips, according to the manufacturer's protocol. Briefly, 750 ng of cRNA was hybridized on the array overnight after which the array was washed and blocked. Then, by addition of streptavidin Cy-3 a fluorescent signal was developed. Arrays were scanned on an Illumina iScan reader and raw intensity values were background corrected in GenomeStudio (Illumina). Further data processing and statistical testing were performed with R and Bioconductor statistical software (www.bioconductor.org), using package lumi. Raw intensity values were transformed using variance stabilization and a quantile normalization was performed. A linear modelling approach with empirical Bayesian methods, as implemented in Limma package (54), was applied for differential expression analysis of the resulting probe-level expression values. A gene list, containing only those genes with an absolute 1.5-fold change between different treatments, was uploaded to Ingenuity Pathway Analysis (IPA) software and used for core analysis. Pathways or networks with a p-value of 0.05 were considered statistically significant.

## CC(=O)N(O)CCCCCNC(=O)CCC(=O)N(O)CCCCCNC(=O)CCC(=O)N(O)CCCCCN [DFO, reference compound]
ProbeID ILMN_1699644
  logFC(D142_ DFO - D142_BAS): 2,52
ProbeID ILMN_1699772
  logFC(D142_ DFO - D142_BAS) RRAGD: 2,43
ProbeID ILMN_1700268
  logFC(D142_ DFO - D142_BAS) QPRT: -2,44
ProbeID ILMN_1702363
  logFC(D142_ DFO - D142_BAS) SULF1: -2,42
ProbeID ILMN_1704154
  logFC(D142_ DFO - D142_BAS) TNFRSF19: -2,00
ProbeID ILMN_1704446
  logFC(D142_ DFO - D142_BAS) SLC6A10P: 2,82
ProbeID ILMN_1704537
  logFC(D142_ DFO - D142_BAS) PHGDH: 2,18
ProbeID ILMN_1707727
  logFC(D142_ DFO - D142_BAS) ANGPTL4: 6,19
ProbeID ILMN_1714108
  logFC(D142_ DFO - D142_BAS) TP53INP1: 2,66
ProbeID ILMN_1715508
  logFC(D142_ DFO - D142_BAS) NNMT: -2,16
ProbeID ILMN_1716608
  logFC(D142_ DFO - D142_BAS) NGF: 2,73
ProbeID ILMN_1718866
  logFC(D142_ DFO - D142_BAS) C5orf46: 2,59
ProbeID ILMN_1718961
  logFC(D142_ DFO - D142_BAS) BNIP3L: 2,24
ProbeID ILMN_1720373
  logFC(D142_ DFO - D142_BAS) SLC7A5: 3,21
ProbeID ILMN_1722532
  logFC(D142_ DFO - D142_BAS) JMJD1A: 2,13
ProbeID ILMN_1723486
  logFC(D142_ DFO - D142_BAS) HK2: 2,21
ProbeID ILMN_1724658
  logFC(D142_ DFO - D142_BAS) BNIP3: 3,37
ProbeID ILMN_1725090
  logFC(D142_ DFO - D142_BAS) CTHRC1: -2,13
ProbeID ILMN_1725139
  logFC(D142_ DFO - D142_BAS) CA9: 3,31
ProbeID ILMN_1726456
  logFC(D142_ DFO - D142_BAS) SLC3A2: 2,31
ProbeID ILMN_1727532
  logFC(D142_ DFO - D142_BAS) OLFML3: -2,91
ProbeID ILMN_1728934
  logFC(D142_ DFO - D142_BAS) PRC1: -2,66
ProbeID ILMN_1733094
  logFC(D142_ DFO - D142_BAS) STEAP1: -2,15
ProbeID ILMN_1733756
  logFC(D142_ DFO - D142_BAS) COL12A1: -2,56
ProbeID ILMN_1736670
  logFC(D142_ DFO - D142_BAS) PPP1R3C: 2,33
ProbeID ILMN_1738116
  logFC(D142_ DFO - D142_BAS) TMEM119: -3,83
ProbeID ILMN_1738407
  logFC(D142_ DFO - D142_BAS) ULBP1: 2,07
ProbeID ILMN_1738742
  logFC(D142_ DFO - D142_BAS) PLAT: 2,03
ProbeID ILMN_1742981
  logFC(D142_ DFO - D142_BAS) TUBA1A: -2,06
ProbeID ILMN_1743199
  logFC(D142_ DFO - D142_BAS) EGR2: 2,34
ProbeID ILMN_1744487
  logFC(D142_ DFO - D142_BAS) C1QTNF5: -2,69
ProbeID ILMN_1744963
  logFC(D142_ DFO - D142_BAS) ERO1L: 3,58
ProbeID ILMN_1747016
  logFC(D142_ DFO - D142_BAS) CEP55: -2,32
ProbeID ILMN_1749892
  logFC(D142_ DFO - D142_BAS) EGLN1: 2,28
ProbeID ILMN_1750324
  logFC(D142_ DFO - D142_BAS) IGFBP5: 2,71
ProbeID ILMN_1751598
  logFC(D142_ DFO - D142_BAS) SESN2: 2,18
ProbeID ILMN_1755749
  logFC(D142_ DFO - D142_BAS) PGK1: 2,16
ProbeID ILMN_1755974
  logFC(D142_ DFO - D142_BAS) ALDOC: 2,33
ProbeID ILMN_1756417
  logFC(D142_ DFO - D142_BAS) ANKRD37: 3,40
ProbeID ILMN_1756572
  logFC(D142_ DFO - D142_BAS) COQ2: -2,03
ProbeID ILMN_1756573
  logFC(D142_ DFO - D142_BAS) NDUFA4L2: 5,66
ProbeID ILMN_1758164
  logFC(D142_ DFO - D142_BAS) STC1: 3,77
ProbeID ILMN_1758623
  logFC(D142_ DFO - D142_BAS) HIST1H2BD: 2,40
ProbeID ILMN_1758672
  logFC(D142_ DFO - D142_BAS) FAM107B: 2,18
ProbeID ILMN_1761281
  logFC(D142_ DFO - D142_BAS) LOC441019: 2,16
ProbeID ILMN_1764090
  logFC(D142_ DFO - D142_BAS) AK3L1: 2,74
ProbeID ILMN_1765557
  logFC(D142_ DFO - D142_BAS) OLFML2B: -3,16
ProbeID ILMN_1765701
  logFC(D142_ DFO - D142_BAS) LOC399942: -2,67
ProbeID ILMN_1765796
  logFC(D142_ DFO - D142_BAS) ENO2: 4,08
